Source: PubChem BioAssay (NCI)
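Each compound was tested at five concentrations against cells in 96-well plates for 48 hours. Abbreviation: GI50, concentration required for 50% inhibition of growth. The concentration for full growth arrest is given as TGI.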

Key:
Assay in all cases: inhibition of tumour cell growth, NCI panel, 48 h
NCI-H226 lung = system: NCI-H226 lung
HT29 colon = system: HT29 colon
HCC-2998 colon = system: HCC-2998 colon
KM12 colon = system: KM12 colon
SF-268 CNS = system: SF-268 CNS
NCI/ADR-RES ovarian = system: NCI/ADR-RES ovarian
COLO 205 colon = system: COLO 205 colon
SK-OV-3 ovarian = system: SK-OV-3 ovarian
NCI-H23 lung = system: NCI-H23 lung
UO-31 renal = system: UO-31 renal
T-47D breast = system: T-47D breast
IGROV1 ovarian = system: IGROV1 ovarian
HL-60(TB) leukemia = system: HL-60(TB) leukemia
SF-295 CNS = system: SF-295 CNS
SR leukemia = system: SR leukemia
SW-620 colon = system: SW-620 colon
LOX IMVI melanoma = system: LOX IMVI melanoma
RPMI-8226 leukemia = system: RPMI-8226 leukemia
TK-10 renal = system: TK-10 renal
EKVX NSCLC = system: EKVX NSCLC
SN12C renal = system: SN12C renal
SNB-19 CNS = system: SNB-19 CNS
K-562 leukemia = system: K-562 leukemia
SF-539 CNS = system: SF-539 CNS
NCI-H522 lung = system: NCI-H522 lung
OVCAR-3 ovarian = system: OVCAR-3 ovarian
HOP-92 NSCLC = system: HOP-92 NSCLC
A549 NSCLC = system: A549 NSCLC
MALME-3M melanoma = system: MALME-3M melanoma
HCT-15 colon = system: HCT-15 colon
CCRF-CEM leukemia = system: CCRF-CEM leukemia
MDA-MB-435 = system: MDA-MB-435
MOLT-4 leukemia = system: MOLT-4 leukemia
M14 melanoma = system: M14 melanoma
OVCAR-4 ovarian = system: OVCAR-4 ovarian
CAKI-1 renal = system: CAKI-1 renal
MDA-MB-231 breast = system: MDA-MB-231 breast
NCI-H460 lung = system: NCI-H460 lung
A498 renal = system: A498 renal
SNB-75 CNS = system: SNB-75 CNS
BT-549 breast = system: BT-549 breast
SK-MEL-5 melanoma = system: SK-MEL-5 melanoma
MCF7 breast = system: MCF7 breast
U251 CNS = system: U251 CNS
HS 578T breast = system: HS 578T breast
SK-MEL-2 melanoma = system: SK-MEL-2 melanoma
HCT-116 colon = system: HCT-116 colon
DU-145 prostate = system: DU-145 prostate
786-0 renal = system: 786-0 renal
UACC-62 melanoma = system: UACC-62 melanoma
PC-3 prostate = system: PC-3 prostate
OVCAR-8 ovarian = system: OVCAR-8 ovarian
HOP-62 NSCLC = system: HOP-62 NSCLC
OVCAR-5 ovarian = system: OVCAR-5 ovarian
RXF 393 renal = system: RXF 393 renal
ACHN renal = system: ACHN renal
UACC-257 melanoma = system: UACC-257 melanoma
SK-MEL-28 melanoma = system: SK-MEL-28 melanoma

Molecule Cn1cc(-c2ccc3nc(-c4ccc(CC(=O)Nc5cc(C(C)(C)C)no5)cc4)cnc3c2)cn1 has a GI50 (NCI-H226 lung) of 44.4 nM, a TGI (NCI-H226 lung) greater than 3000 nM and a GI50 (HT29 colon) of 85.9 nM. It also gave a TGI (HT29 colon) greater than 3000 nM, a GI50 (HCC-2998 colon) greater than 1690 nM and a TGI (HCC-2998 colon) greater than 3000 nM. It also gave a GI50 (KM12 colon) of 1.73 nM, a TGI (KM12 colon) greater than 3000 nM and a GI50 (SF-268 CNS) of 39.9 nM. For the same molecule, the TGI (SF-268 CNS) was greater than 3000 nM, the GI50 (NCI/ADR-RES ovarian) was 61.2 nM and the TGI (NCI/ADR-RES ovarian) was greater than 3000 nM. For the same molecule, the TGI (COLO 205 colon) was greater than 3000 nM, the GI50 (SK-OV-3 ovarian) was 93.8 nM and the TGI (SK-OV-3 ovarian) was 712 nM. For the same molecule, the GI50 (NCI-H23 lung) was 895 nM, the TGI (NCI-H23 lung) was greater than 3000 nM and the GI50 (UO-31 renal) was 52.1 nM. It also gave a TGI (UO-31 renal) of 269 nM, a GI50 (T-47D breast) of 82.7 nM and a TGI (T-47D breast) greater than 3000 nM. The GI50 (IGROV1 ovarian) was 13 nM, the TGI (IGROV1 ovarian) was greater than 1210 nM and the GI50 (HL-60(TB) leukemia) was 735 nM. It also gave a TGI (HL-60(TB) leukemia) greater than 3000 nM, a GI50 (SF-295 CNS) of 56.3 nM and a TGI (SF-295 CNS) greater than 3000 nM. For the same molecule, the GI50 (SR leukemia) was less than 44.5 nM, the TGI (SR leukemia) was greater than 3000 nM and the GI50 (SW-620 colon) was 47.7 nM. The TGI (SW-620 colon) was greater than 3000 nM, the GI50 (LOX IMVI melanoma) was 36 nM and the TGI (LOX IMVI melanoma) was greater than 3000 nM. It also gave a GI50 (RPMI-8226 leukemia) of 56 nM, a TGI (RPMI-8226 leukemia) greater than 3000 nM and a GI50 (TK-10 renal) of 13.9 nM. For the same molecule, the TGI (TK-10 renal) was greater than 3000 nM, the GI50 (EKVX NSCLC) was 143 nM and the TGI (EKVX NSCLC) was greater than 3000 nM. For the same molecule, the GI50 (SN12C renal) was 26.8 nM, the TGI (SN12C renal) was greater than 3000 nM and the GI50 (SNB-19 CNS) was greater than 1480 nM. It also gave a TGI (SNB-19 CNS) greater than 3000 nM, a GI50 (K-562 leukemia) of 17 nM and a TGI (K-562 leukemia) greater than 3000 nM. The GI50 (SF-539 CNS) was 27.4 nM, the TGI (SF-539 CNS) was greater than 3000 nM and the GI50 (NCI-H522 lung) was 49.8 nM. For the same molecule, the TGI (NCI-H522 lung) was greater than 3000 nM, the GI50 (OVCAR-3 ovarian) was 59.2 nM and the TGI (OVCAR-3 ovarian) was greater than 3000 nM. It also gave a GI50 (HOP-92 NSCLC) of 49.5 nM, a TGI (HOP-92 NSCLC) greater than 3000 nM and a GI50 (A549 NSCLC) of 57.7 nM. The TGI (A549 NSCLC) was greater than 3000 nM, the GI50 (MALME-3M melanoma) was 21 nM and the TGI (MALME-3M melanoma) was greater than 694 nM. It also gave a GI50 (HCT-15 colon) of 19.7 nM, a TGI (HCT-15 colon) greater than 3000 nM and a GI50 (CCRF-CEM leukemia) of 692 nM. For the same molecule, the TGI (CCRF-CEM leukemia) was greater than 3000 nM, the GI50 (MDA-MB-435) was 50.5 nM and the TGI (MDA-MB-435) was greater than 3000 nM. The GI50 (MOLT-4 leukemia) was 102 nM, the TGI (MOLT-4 leukemia) was greater than 3000 nM and the GI50 (M14 melanoma) was 17.2 nM. For the same molecule, the TGI (M14 melanoma) was greater than 3000 nM, the GI50 (OVCAR-4 ovarian) was 19.3 nM and the TGI (OVCAR-4 ovarian) was greater than 3000 nM. For the same molecule, the GI50 (CAKI-1 renal) was 10.2 nM, the TGI (CAKI-1 renal) was greater than 3000 nM and the GI50 (MDA-MB-231 breast) was 39.2 nM. It also gave a TGI (MDA-MB-231 breast) of 664 nM, a GI50 (NCI-H460 lung) of 28.9 nM and a TGI (NCI-H460 lung) greater than 3000 nM. For the same molecule, the GI50 (A498 renal) was 43.9 nM, the TGI (A498 renal) was 185 nM and the GI50 (SNB-75 CNS) was 16.1 nM. The TGI (SNB-75 CNS) was greater than 840 nM, the GI50 (BT-549 breast) was 206 nM and the TGI (BT-549 breast) was greater than 3000 nM. The TGI (SK-MEL-5 melanoma) was greater than 3000 nM, the TGI (MCF7 breast) was greater than 3000 nM and the GI50 (U251 CNS) was 29.8 nM. For the same molecule, the TGI (U251 CNS) was greater than 3000 nM, the GI50 (HS 578T breast) was 24 nM and the TGI (HS 578T breast) was greater than 3000 nM. The GI50 (SK-MEL-2 melanoma) was 23.7 nM, the TGI (SK-MEL-2 melanoma) was 581 nM and the GI50 (HCT-116 colon) was 29 nM. It also gave a TGI (HCT-116 colon) greater than 3000 nM, a GI50 (DU-145 prostate) of 29.6 nM and a TGI (DU-145 prostate) greater than 3000 nM. The GI50 (786-0 renal) was 37.5 nM, the TGI (786-0 renal) was greater than 3000 nM and the GI50 (UACC-62 melanoma) was 29.7 nM. It also gave a TGI (UACC-62 melanoma) greater than 3000 nM, a GI50 (PC-3 prostate) of 112 nM and a TGI (PC-3 prostate) greater than 3000 nM. It also gave a GI50 (OVCAR-8 ovarian) of 54.8 nM, a TGI (OVCAR-8 ovarian) greater than 3000 nM and a GI50 (HOP-62 NSCLC) of 46.5 nM. It also gave a TGI (HOP-62 NSCLC) greater than 3000 nM, a GI50 (OVCAR-5 ovarian) of 82.8 nM and a TGI (OVCAR-5 ovarian) greater than 3000 nM. For the same molecule, the GI50 (RXF 393 renal) was 19.5 nM, the TGI (RXF 393 renal) was greater than 3000 nM and the GI50 (ACHN renal) was 14.4 nM. For the same molecule, the TGI (ACHN renal) was greater than 3000 nM, the GI50 (UACC-257 melanoma) was 78.4 nM and the TGI (UACC-257 melanoma) was greater than 3000 nM. The GI50 (SK-MEL-28 melanoma) was 104 nM and the TGI (SK-MEL-28 melanoma) was greater than 3000 nM.
